PMC6155426, “Metabolite Profiling of Eastern Teaberry (Gaultheria procumbens L.) Lipophilic Leaf Extracts with Hyaluronidase and Lipoxygenase Inhibitory Activity” (Molecules : A Journal of Synthetic Chemistry and Natural …, 2017)
Read-outs that look alike come from different tables or passages of the source.

Assays:
[1] = biological target: T1, bovine testis hyaluronidase (Bos taurus, UniProt Q2YDK3); test: Hyaluronidase inhibition test (turbidimetric, 96-well); format: biochemical; conditions: for IC50: read-out: HYAL inhibitory activity (IC50) (converted)
T1 construct: purchased Sigma-Aldrich; host or cells: bovine testis (tissue-derived preparation)
T1 sequence (Q2YDK3 36-553): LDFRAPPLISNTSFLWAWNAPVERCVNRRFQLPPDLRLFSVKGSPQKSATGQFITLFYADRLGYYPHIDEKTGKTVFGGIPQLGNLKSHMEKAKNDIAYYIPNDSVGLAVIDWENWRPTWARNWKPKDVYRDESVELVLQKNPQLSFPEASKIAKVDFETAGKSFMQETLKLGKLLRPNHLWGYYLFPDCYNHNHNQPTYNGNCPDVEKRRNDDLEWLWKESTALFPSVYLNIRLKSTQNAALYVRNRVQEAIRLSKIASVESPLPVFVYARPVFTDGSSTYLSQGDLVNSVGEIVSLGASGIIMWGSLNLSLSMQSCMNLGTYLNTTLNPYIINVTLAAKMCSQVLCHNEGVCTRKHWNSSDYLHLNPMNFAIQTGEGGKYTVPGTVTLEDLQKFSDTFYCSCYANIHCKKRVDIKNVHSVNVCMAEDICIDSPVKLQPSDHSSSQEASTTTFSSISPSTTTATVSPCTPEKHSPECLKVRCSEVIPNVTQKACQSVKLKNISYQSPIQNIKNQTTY
Procedure: (§1) Heparin sodium salt was purchased from WZF Polfa (Warsaw, Poland). HPLC grade solvents (methanol and orthophosphoric acid) were from Avantor Performance Materials (Avantor PM, Gliwice, Poland). All other chemicals and solvents were of analytical grade and supplied by Avantor PM. In all analyses redistilled water was used. Enzymatic tests were done using 96-well plates and monitored using a Synergy 4 microplate reader (BioTek, Winooski, VT, USA). Column chromatography (CC) was performed on silica gel 60 G (0.2–0.5 mm, Macherey-Nagel, Düren, Germany). Analytical TLC was carried out on silica gel 60 G precoated plates (Merck, Warsaw, Poland) using horizontal DC chambers (Chromdes, Lublin, Poland). Flash chromatography was carried out on an Interchim puriFlash^TM 430evo chromatograph (Interchim Inc., San Pedro, CA, USA) equipped with a UV-Vis detector scanning in the wavelength range of 200–600 nm, a fraction collector, and Interchim puriFlash Silica HC (50 µm, 72 mm × 15 mm, 4 g) preparative columns. The flow rate was 7 mL/min. The mobile phase consisted of petroleum ether (A), chloroform (B), and methanol (C). A linear gradient system was used for elution (A:B:C): 0–9 min, 75:25:0 (v/v/v); 9–10 min, 49:49:2; 10–15 min, 45:45:10. Before injection, samples were dissolved in chloroform. Melting points (uncorrected) were determined on a Boetius apparatus (Carl Zeiss, Jena, Germany). UV-Vis spectra, before and after adding ionization and complexation reagents, were recorded at 25 °C on a UV-1601 Spectrophotometer (Rayleigh, Beijing, China) in methanol, according to Mabry et al.. ESI-MS spectra were measured on a UHPLC-3000 RS chromatograph (Dionex, Dreieich, Germany) equipped with a dual low-pressure gradient pump, an autosampler, a diode array detector, and an AmaZon SL ion trap mass spectrometer with an ESI interface (Bruker Daltonik, Bremen, Germany). IR spectra were recorded in KBr on a Bruker Alpha FT-IR spectrometer (Bruker Daltonik). Optical rotation ( [α]D20 ) was measured in chloroform on a PolAAr 3001 polarimeter (Optical Activity, Ramsey, UK). ^1H-NMR, ^13C-NMR, ^1H-^1H COSY, HMQC, and HMBC spectra were recorded at 25 °C on a Bruker Daltonik III 600 MHz spectrometer in CDCl3 and with TMS as the internal standard.
Inhibitory activity of the tested analytes (extracts and individual compounds) was determined by turbidimetric method adapted for 96-well microtiter plates as described previously. The protocol was started by adding 20 μL of the tested analyte solution in monosodium phosphate buffer (pH = 7.0) to 40 μL of hyaluronidase solution (22.55 U/mL) in monosodium phosphate buffer (pH = 7.0) and the mixture was incubated at 37.0 ± 0.1 °C in the dark for 10 min. After this time 40 μL of hyaluronic acid solution (0.03%, w/v) in monosodium phosphate buffer (pH = 5.35) was added and the mixture was further incubated at 37.0 ± 0.1 °C in the dark for 45 min. Finally 300 μL of bovine serum albumin solution (0.1%, w/v) in sodium acetate buffer (pH = 3.75) was added to the mixture and incubated in room temperature for 10 min. Changes in turbidity were measured at 600 nm. […] At each level three independent experiments were carried out in duplicate. Heparin was used as a positive control. Activity of the tested analytes was calculated as inhibition percentage (% Inhibition) of hyaluronidase according to the Equation (1): (1) % Inhibition=100×(1−(AHA−AAN/AHA−AHYAL)), where AHA—absorbance of solution without the enzyme, AHYAL—absorbance of solution without the tested analyte (negative control), AAN—absorbance of solution with the tested analyte.

[2] = biological target: T2, lipoxygenase from soybean (Glycine max, UniProt P08170); test: Lipoxygenase inhibition test (spectrophotometric, 96-well); format: biochemical
T2 construct: purchased Sigma-Aldrich; host or cells: soybean (plant-derived preparation)
T2 sequence (P08170 1-839): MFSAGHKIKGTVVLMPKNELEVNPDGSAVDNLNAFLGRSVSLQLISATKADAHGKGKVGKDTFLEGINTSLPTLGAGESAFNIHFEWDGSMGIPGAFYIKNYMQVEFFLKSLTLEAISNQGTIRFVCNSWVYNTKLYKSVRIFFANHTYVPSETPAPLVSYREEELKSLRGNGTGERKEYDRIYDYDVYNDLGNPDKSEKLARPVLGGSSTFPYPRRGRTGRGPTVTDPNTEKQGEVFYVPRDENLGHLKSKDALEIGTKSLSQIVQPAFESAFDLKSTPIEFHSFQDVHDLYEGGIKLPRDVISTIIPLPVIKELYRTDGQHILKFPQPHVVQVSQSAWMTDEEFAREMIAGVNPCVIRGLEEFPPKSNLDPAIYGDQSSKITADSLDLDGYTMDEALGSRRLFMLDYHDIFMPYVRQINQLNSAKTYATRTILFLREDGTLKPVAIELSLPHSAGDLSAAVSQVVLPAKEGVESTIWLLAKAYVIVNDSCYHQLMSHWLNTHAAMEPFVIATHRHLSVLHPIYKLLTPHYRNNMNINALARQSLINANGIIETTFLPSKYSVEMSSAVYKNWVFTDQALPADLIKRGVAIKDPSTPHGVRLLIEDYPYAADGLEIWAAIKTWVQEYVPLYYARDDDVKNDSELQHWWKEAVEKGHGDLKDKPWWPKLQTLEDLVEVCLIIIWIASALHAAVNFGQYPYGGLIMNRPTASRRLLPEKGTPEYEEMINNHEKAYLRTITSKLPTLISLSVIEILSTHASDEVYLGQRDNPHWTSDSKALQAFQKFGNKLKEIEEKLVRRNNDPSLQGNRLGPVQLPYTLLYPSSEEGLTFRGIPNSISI
Procedure: as §1
Inhibitory activity of the tested analytes (extracts and individual compounds) was determined by a spectrophotometric method adjusted to a 96-well microtiter plates according to Granica et al.. The protocol was started by adding 50 μL of the tested analyte solution in sodium borate buffer (pH = 9.0), then 50 μL of linoleic acid solution (134 μM) was added, followed by 50 μL of lipoxygenase solution (167 U/mL) in sodium borate buffer (pH = 9.0). The reaction mixture was vigorously shaken and changes in absorbance were measured at 234 nm over a period of 15 min with 1 min intervals. […] At each level three independent experiments were carried out in duplicate. Indomethacin was used as a positive control. Activity of the tested analytes was calculated as inhibition percentage (% Inhibition) of lipoxygenase according to Equation (2): (2) % Inhibition=100×(1−(AAN−ALA/ALOX)), where AAN—absorbance of solution with the tested analyte, ALA—absorbance of solution without the enzyme, ALOX—absorbance of solution without the tested analyte (negative control). The absorbance value in the 10th minute of the reaction were used for the calculation.

[3] = tested 100−1000 μg/mL, hyaluronic acid substrate, 37 °C, mean ± SD (n = 3 × 2)
[4] = tested 50−1000 μg/mL, linoleic acid substrate, pH 9.0, mean ± SD (n = 3 × 2), read-out: LOX inhibitory activity (IC50) (converted)

Compound | IC50 [1, 3] | IC50 [2] | IC50 [2, 4] | inhibitory activity towards hyaluronidase in the tested concentration range ([1]; tested concentration range 100−1000 μg/mL) | HYAL inhibitory activity (IC50) [1, 3]
COC(=O)c1ccccc1 [BM, methyl benzoate] | 5700 µM | 2750 µM | – | – | –
COc1cc2oc(-c3ccc(O)cc3)c(OC)c(=O)c2c(O)c1C [DL, 4′,5-dihydroxy-3,7-dimethoxy-6-methylflavone] | 1320 µM | – | 920 µM | – | –
CCCCCCCCCCCCCCCCCCCCCC [DOC, docosane] | > 3220 µM | – | 2640 µM | no inhibitory activity | –
COc1cc2oc(-c3ccc(O)cc3)cc(=O)c2c(O)c1C [DS, 4′,5-dihydroxy-7-methoxy-6-methylflavone] | 1570 µM | – | 1120 µM | – | –
COc1ccc2c(c1)c(CC(=O)O)c(C)n2C(=O)c1ccc(Cl)cc1 [IND, indomethacin, reference compound] | – | – | 259 µM | – | –
CC1(C)CC[C@]2(C(=O)O)CC[C@]3(C)C(=CC[C@@H]4[C@@]5(C)CC[C@H](O)C(C)(C)[C@@H]5CC[C@]43C)[C@@H]2C1 [OA, oleanolic acid] | – | 2020 µM | – | – | –
COC(=O)c1ccccc1O [SM, methyl salicylate] | 5220 µM | – | 2570 µM | – | –
C[C@H]1[C@H](C)CC[C@]2(C(=O)O)CC[C@]3(C)C(=CC[C@@H]4[C@@]5(C)CC[C@H](O)C(C)(C)[C@@H]5CC[C@]43C)[C@H]12 [UA, ursolic acid] | 832 µM | 1610 µM | – | – | –
CC1=CC(=O)CC(C)(C)C1(O)C=CC(C)O [VO, (6S,9R)-6-hydroxy-3-oxo-α-ionol] | 1590 µM | – | 540 µM | – | –
CC[C@H](CC[C@@H](C)[C@H]1CC[C@H]2[C@@H]3CC=C4C[C@@H](O)CC[C@]4(C)[C@H]3CC[C@]12C)C(C)C [β-SIT, β-sitosterol] | 1650 µM | – | 1910 µM | – | –
heparin [HP, reference compound] | – | – | – | – | 366.24 ± 14.72 µg/mL
